Activity calls are given as the source filed them. The rule behind the calls is not given here.
Assays:
[1] = target: Mitogen-activated protein kinase 1 (Rattus norvegicus) (UniProt P63086); assay: Activation of ERK2 phosphorylation in rat aortic smooth muscle cells at 1 uM
Rattus norvegicus [2] = organism: Rattus norvegicus; assay: Effect on PDGF and serum-induced cyclin E expression in rat aortic smooth muscle cells at 1 uM; assay type: functional
[3] = target: Mitogen-activated protein kinase 3 (Rattus norvegicus) (UniProt P21708); assay: Activation of ERK1 phosphorylation in rat aortic smooth muscle cells at 1 uM
[4] = target: MAP kinase p38 (Homo sapiens) (UniProt O15264+Q15759+Q16539+P53778); assay: Activation of p38 phosphorylation in rat aortic smooth muscle cells at 1 uM
[5] = Antiproliferative activity against rat aortic smooth muscle cells; assay type: functional
HUVEC = assay: Antiproliferative activity against HUVEC; assay type: functional, cell-based; details: Homo sapiens
NIH3T3 = assay: Antiproliferative activity against mouse NIH3T3 cells; assay type: functional, cell-based
Rattus norvegicus [6] = organism: Rattus norvegicus; assay: Induction of apoptosis in rat aortic smooth muscle cells assessed as caspase 3 activation at 1 uM; assay type: functional
[7] = Cell cycle arrest in rat aortic smooth muscle cells assessed as accumulation at G1 phase at 1 uM after 16 hrs; assay type: functional
[8] = Cell cycle arrest in rat aortic smooth muscle cells assessed as accumulation at G2 phase at 1 uM after 16 hrs; assay type: functional
[9] = Cell cycle arrest in rat aortic smooth muscle cells assessed as accumulation at G0/G1 phase at 1 uM after 16 hrs; assay type: functional
Rattus norvegicus [10] = organism: Rattus norvegicus; assay: Inhibition of PDGF and FBS-induced migration of rat aortic smooth muscle cells by transwell plate assay; assay type: functional
[11] = Cell cycle arrest in rat aortic smooth muscle cells assessed as accumulation at S phase at 1 uM after 16 hrs; assay type: functional
[12] = Cell cycle arrest in rat smooth muscle cells assessed as accumulation at G2/M phase at 1 uM after 16 hrs; assay type: functional, cell-based

Chain of Mitogen-activated protein kinase 1 (Rattus norvegicus) (P63086 whole entry): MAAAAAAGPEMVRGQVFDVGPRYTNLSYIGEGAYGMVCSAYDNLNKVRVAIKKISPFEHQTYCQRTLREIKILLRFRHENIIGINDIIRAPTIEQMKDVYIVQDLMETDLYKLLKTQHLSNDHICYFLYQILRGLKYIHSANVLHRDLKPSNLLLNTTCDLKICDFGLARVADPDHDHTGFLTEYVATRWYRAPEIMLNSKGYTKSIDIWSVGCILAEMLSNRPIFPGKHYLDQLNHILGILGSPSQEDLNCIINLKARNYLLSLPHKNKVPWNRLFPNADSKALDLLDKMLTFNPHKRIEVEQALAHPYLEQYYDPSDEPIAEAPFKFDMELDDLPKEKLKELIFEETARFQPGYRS
Chain of Mitogen-activated protein kinase 3 (Rattus norvegicus) (P21708 whole entry): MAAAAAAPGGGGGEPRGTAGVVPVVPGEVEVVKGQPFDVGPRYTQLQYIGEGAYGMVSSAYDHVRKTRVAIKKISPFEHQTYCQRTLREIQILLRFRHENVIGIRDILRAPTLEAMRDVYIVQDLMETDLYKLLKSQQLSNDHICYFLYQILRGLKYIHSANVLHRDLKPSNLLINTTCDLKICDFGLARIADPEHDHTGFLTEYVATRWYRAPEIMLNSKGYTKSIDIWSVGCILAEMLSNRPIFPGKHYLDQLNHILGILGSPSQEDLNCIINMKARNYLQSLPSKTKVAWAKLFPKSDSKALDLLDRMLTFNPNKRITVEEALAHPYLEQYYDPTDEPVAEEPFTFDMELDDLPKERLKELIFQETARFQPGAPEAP

SMILES: Cc1nc2c([nH]1)C(=O)/C(=N/c1ccccc1)C(Cl)=C2O
- Activity [1]: Active
- Activity (Rattus norvegicus [2]): inactive
- Activity [3]: Active
- Activity [4]: Active
- IC50 [5]: 800 nM
- IC50 (HUVEC): 1200 nM
- IC50 (NIH3T3): 5200 nM
- Activity (Rattus norvegicus [6]): Active
- Activity [7]: inactive
- Activity [8]: inactive
- Activity [9]: 56.4%
- Activity (Rattus norvegicus [10]): Active
- Activity [11]: 23.3%
- Activity [12]: 20.1%

SMILES: Cc1nc2c([nH]1)C(=O)/C(=N/c1cccc(Br)c1)C(Cl)=C2O
- IC50 [5]: 1000 nM
- IC50 (HUVEC): 800 nM
- IC50 (NIH3T3): 800 nM

SMILES: Cc1nc2c([nH]1)C(=O)/C(=N/c1ccc(F)cc1F)C(Cl)=C2O
- IC50 [5]: 1200 nM
- IC50 (HUVEC): 1000 nM
- IC50 (NIH3T3): 800 nM

SMILES: Cc1nc2c([nH]1)C(=O)/C(=N/c1ccc(I)cc1)C(Cl)=C2O
- IC50 [5]: 1000 nM
- IC50 (HUVEC): 2000 nM
- IC50 (NIH3T3): 600 nM

SMILES: Cc1nc2c([nH]1)C(=O)/C(=N/c1ccc(Cl)cc1)C(Cl)=C2O
- IC50 [5]: 2800 nM
- IC50 (HUVEC): 800 nM
- IC50 (NIH3T3): 1300 nM

SMILES: Cc1nc2c([nH]1)C(=O)/C(=N/c1ccc(F)cc1)C(Cl)=C2O
- IC50 [5]: 3000 nM
- IC50 (HUVEC): 1000 nM
- IC50 (NIH3T3): 1200 nM

SMILES: Cc1nc2c([nH]1)C(=O)/C(=N/c1cccc(Cl)c1)C(Cl)=C2O
- IC50 [5]: 900 nM
- IC50 (HUVEC): 600 nM
- IC50 (NIH3T3): 1600 nM

SMILES: Cc1nc2c([nH]1)C(=O)/C(=N/c1cccc(Cl)c1Cl)C(Cl)=C2O
- IC50 [5]: 600 nM
- IC50 (HUVEC): 300 nM
- IC50 (NIH3T3): 2300 nM

SMILES: Cc1ccc(NC2=C(Cl)C(=O)c3nc(C)[nH]c3C2=O)cc1
- IC50 [5]: 800 nM
- IC50 (HUVEC): 1000 nM
- IC50 (NIH3T3): 1600 nM

SMILES: Cc1nc2c([nH]1)C(=O)/C(=N/c1ccc(F)c(F)c1F)C(Cl)=C2O
- IC50 [5]: 800 nM
- IC50 (HUVEC): 500 nM
- IC50 (NIH3T3): 1600 nM

SMILES: Cc1nc2c([nH]1)C(=O)/C(=N/c1ccc(Cl)cc1Cl)C(Cl)=C2O
- IC50 [5]: 800 nM
- IC50 (HUVEC): 500 nM
- IC50 (NIH3T3): 1200 nM

SMILES: Cc1nc2c([nH]1)C(=O)/C(=N/c1ccc(C(F)(F)F)cc1)C(Cl)=C2O
- IC50 [5]: 600 nM
- IC50 (HUVEC): 600 nM
- IC50 (NIH3T3): 1100 nM

— ChEMBL document CHEMBL1143949, “Antiproliferative effects of 6-anilino-5-chloro-1H-benzo[d]imidazole-4,7-dione in vascular smooth muscle cells” (Bioorg Med Chem, 2008)
